# Test results from patent US6403777B1, “Metalloligands for cleaving nucleic acids” (The Ohio State University Research Foundation, priority 1999, dated 2002).
# Assays:
# Plasmid DNA [1] = assay: Non-specific plasmid DNA cleavage under oxidizing conditions; type: biochemical; settings: for cleavage of DNA without metalloligand: no metalloligand
# Method: Plasmid DNA at a concentration of 50 μM, bp was added to a reaction solution containing 20 mM HEPES, pH 7.3, and the metalloligands of Examples 1-4 and the reducing agent ascorbic acid. […] The metalloligands of examples 1 to 4 also degraded plasmid DNA completely in the presence of 10 μM H2O2.
# However, superoxide dismutase (SOD) and NaN3 inhibited oxidative DNA cleavage mediated by Cu(kanamycin A). Accordingly, it is believed that activated oxygen species (such as O2^− or ^1O2) are involved in plasmid cleavage when the metalloligand and the substrate DNA are reacted under oxidizing conditions.
# R23 RNA [2] = settings: cited from earlier work
# Plasmid DNA [3] = assay: Non-specific plasmid DNA cleavage (hydrolytic conditions), gel electrophoresis; type: biochemical
# Method: The appearance of open circular DNA (form II) and the disappearance of supercoiled DNA (form I) was monitored via gel electrophoresis.
# Metalloligands comprising the transition metal ions Fe, Mn, Co, and Ni were formed by mixing a 10 μM solution of the salts FeSO4, MnCl2, CoSO4, and NiCi2, and an equivalent volume of 10 μM kanamycin A for 12 h at 35 ° C. Complex formation was monitored by thin layer chromatography, using PrOH:Me2CO:NH4OAc (20%(aq)) (1:1:5:0.025) on silica gel plates. […]
# R23 RNA [4] = assay: Specific cleavage of 23-mer R23 RNA, FPLC analysis; type: biochemical
# Method: The metalloligand is added to a sample containing substrate RNA with the recognized binding motif. Preferably, the RNA is in an aqueous solution having a pH of from about 7 to about 8. Preferably, the reaction is conducted at a temperatures ranging from 4° C. to about 40° C.
# R23 RNA [5] = assay: Cleaving R23 RNA at select sites under oxidizing conditions; type: biochemical
# Method: Uniformly labeled R23 RNA was incubated at 37° C. for 1 hr with various concentrations of Cu(kanamycin A) in the presence and absence of the co-reactants H2O2 and ascorbate. Cleavage products were separated on a denaturing polyacrylamide gel. […] These sites are depicted in FIG. 1. […] RNA cleavage of 30% was observed by FPLC with 1 nM Cu(kanamycin A) after incubation at 37° C. for 1 hour. Cleavage efficiencies of approximately 25% were obtained for solutions containing 50 pM Cu(kanamycin A) and 100 μM ascorbate or 1 μM H2O2 following incubation for 2 h at 37° C. Thus, Cu(kanamycin A) is able to selectively cleave RNA at physiological pH and under mild oxidizing conditions.
# poly(C) = assay: Cleavage of poly(C); settings: similar reaction conditions as R23
# linear oligo (A12-18) = assay: Cleavage of linear oligo (A12-18); settings: similar reaction conditions as R23
# [6] = Stability of the metalloligands in aqueous solution; settings: purified complex
compound,measurement,setting,value
"[Cu+2] [Cu^2+(aq), reference compound]",cleavage of DNA without metalloligand,Plasmid DNA [1]; Cu2+ and ascorbate,did not occur
same,cleavage of DNA without metalloligand,Plasmid DNA [1]; Cu2+(aq) alone,did not occur
NC[C@@H]1O[C@H](O[C@H]2[C@@H](O)[C@H](O[C@@H]3[C@@H](O)[C@H](N)C[C@H](N)[C@H]3O[C@H]3O[C@H](CN)[C@@H](O)[C@H](O)[C@H]3N)O[C@@H]2CO)[C@H](N)[C@@H](O)[C@@H]1O [neomycin B],binding affinity to R23 RNA,R23 RNA [2],high binding affinity
Cu(kanamycin A),nicking of plasmid DNA,"Plasmid DNA [3]; 500 nM complex, 5 minutes, plasmid DNA 50 μM bp, 20 mM HEPES pH 7.3",At least some DNA was nicked
same,time to complete degradation of plasmid DNA,"Plasmid DNA [3]; 1 μM complex, plasmid DNA 50 μM bp, 20 mM HEPES pH 7.3",≤ 1 h
same,effect of quenchers on DNA cleavage,"Plasmid DNA [3]; addition of SOD, NaN3, DMSO, EtOH",not inhibited
same,effect of excess metal-free aminoglycoside on DNA cleavage,Plasmid DNA [3]; addition of excess metal-free aminoglycoside,inhibited cleavage
same,DNA cleavage under anaerobic conditions,Plasmid DNA [3]; argon atmosphere,not inhibited
same,conversion of supercoiled DNA to linear form,"Plasmid DNA [1]; 5 nM complex, 10 μM ascorbate, supercoiled DNA 51 μM base pair",Complete conversion
same,effect of hydroxy radical quenchers on oxidative DNA cleavage,Plasmid DNA [1]; DMSO and EtOH,did not inhibit
same,effect of SOD and NaN3 on oxidative DNA cleavage,Plasmid DNA [1]; superoxide dismutase (SOD) and NaN3,inhibited
same,cleavage of structured 23 mer RNA,"R23 RNA [4]; 10 nmol complex, pH 7.3, 37 °C, 90 minutes",Good results
same,hydrolysis of R23 RNA,"R23 RNA [4]; 20 nM complex, 23-mer RNA 30 μM base pair, 90 minutes, 20 mM HEPES pH 7.3, FPLC",54%
same,hydrolysis efficiency of R23 RNA,R23 RNA [4]; 100 nM complex instead of 20 nM,Hydrolysis efficiency increased
same,cleavage efficiency,"R23 RNA [5]; 50 pM complex, 100 μM ascorbate or 1 μM H2O2, 2 h, 37 °C",approximately 25%
same,RNA cleavage,"R23 RNA [5]; 1 nM complex, 37 °C, 1 hour, FPLC",30%
same,sites of cleavage in R23 RNA,"R23 RNA [5]; 37 °C, 1 hr, presence and absence of H2O2 and ascorbate, denaturing polyacrylamide gel",one in the loop region at G^15 and the other in the stem region at C^4
same,degradation of target RNA,"R23 RNA [5]; nanomolar complex, 100 μM ascorbate or 1 μM H2O2",extremely efficient degradation
same,cleavage of poly(C),poly(C),no cleavage
same,cleavage of linear oligo (A12-18),linear oligo (A12-18),no cleavage
same,stability in aqueous solution,[6],stable in aqueous solution for more than one day
Cu(kanamycin A)2,concentration at which plasmid DNA was cleaved (as low as),Plasmid DNA [3],100 nM
Cu(neamine),time to appearance of open circular DNA (form II),"Plasmid DNA [3]; 0.1 μmolar complex, plasmid DNA 50 μM bp, 10 mM HEPES pH 7.3, 37 °C",within less than one hour
same,stability in aqueous solution,[6],stable in aqueous solution for more than one day
Cu(neomycin B),concentration at which plasmid DNA was cleaved (as low as),Plasmid DNA [3],100 nM
